Tests used:
Assay type in all cases: in vivo
[1] = test system: goosegrass (Eleusine indica); test: Test F pre/postemergence
Excerpt: (§1) Seeds or nutlets of plant species selected from (turf) bermudagrass (Cynodon dactylon), Kentucky bluegrass (Poa pratensis), bentgrass (Agrostis palustris), hard fescue (Festuca ovina), large crabgrass (Digitaria sanguinalis), goosegrass (Eleusine indica), dallisgrass (Paspalum dilatatum), annual bluegrass (Poa annua), common chickweed (Stellaria media), dandelion (Taraxacum officinale), white clover (Trifolium repens), and yellow nutsedge (Cyperus esculentus) were planted and treated preemergence with the test chemical formulated in a non-phytotoxic solvent mixture which included a surfactant.
(§2) At the same time, plants selected from these crop and weed species were treated with postemergence applications of the test chemical formulated in the same manner. Plants ranged in height from 2 to 18 cm (1- to 4-leaf stage) for postemergence treatments. Treated plants and controls were maintained in a greenhouse for 12 to 14 days, after which time all species were compared to controls and visually evaluated. Plant response ratings, summarized in Table F, are based on a scale of 0 to 100 where 0 is no effect and 100 is complete control. A dash (-) response means no test result.

[2] = test system: (turf) bermudagrass (Cynodon dactylon); test: Test F pre/postemergence
Excerpt: as §1, §2

[3] = test system: yellow nutsedge (Cyperus esculentus); test: Test F pre/postemergence
Excerpt: as §1, §2

[4] = test system: orange (Citrus sinensis) trees; test: Test G post-directed application; details: 1500 g ai/ha, scale 0 to 100
Protocol: (§3) At a different time, established container-grown grape (Vitus vinifera) vines, and olive (Olea europaea) and orange (Citrus sinensis) trees were treated with some of the test chemicals formulated in the same manner and applied to the soil surface and the lower 5 cm of the plant vines or trunks (post-directed application). Plants ranged in height from 30 to 100 cm. The applications were made using a hand sprayer delivering a volume of 990 L/ha. Treated plants and controls were maintained in a greenhouse for 28 days, after which time the treated plants were compared to controls and visually evaluated.
(§4) Plant response ratings, summarized in Table G, are based on a scale of 0 to 100 where 0 is no effect and 100 is complete control. A dash (-) response means no test result.

[5] = test system: olive (Olea europaea) trees; test: Test G post-directed application; details: scale 0 to 100
Protocol: as §3, §4

[6] = test system: grape (Vitus vinifera) vines; test: Test G post-directed application; details: 1500 g ai/ha, scale 0 to 100
Protocol: as §3, §4

[7] = test system: common chickweed (STEME; Stellaria media); test: Test I mixtures of compound 9 with metsulfuron-methyl and chlorsulfuron-metsulfuron-methyl (5:1); details: applied alone
Excerpt: (§5) This test evaluated the effect of mixtures of compound 9 with metsulfuron-methyl and with a 5:1 by weight combination of chlorsulfuron and metsulfuron-methyl on several plant species. Seeds of test plants consisting of wheat (TRZAW; Triticum aestivum), wild buckwheat, (POLCO; Polygonum convolvulus), redroot pigweed (AMARE; Amaranthus retroflexus), wild mustard (SINAR; Sinapis arvensis), catchweed bedstraw (GALAP; Galium aparine), Russian thistle (SASKR; Salsola kali), common chickweed (STEME; Stellaria media), kochia (KCHSC; Kochia scoparia), and lambsquarters (CHEAL; Chenopodium album) were planted into a blend of loam soil and sand. Plants were grown in a greenhouse using supplemental lighting to maintain a photoperiod of about 14 hours; daytime and nighttime temperatures were about 23° C. and 16° C., respectively. Balanced fertilizer was applied through the watering system. The plants were grown for 10 to 23 days so that at time of treatment the plants ranged from 2- to 8-leaf stage. Treatments consisted of Compound 9, metsulfuron-methyl, and chlorsulfuron-metsulfuron-methyl (5:1) alone and in combination. The treatments were formulated in a non-phytotoxic solvent mixture which included a surfactant and applied as a foliage spray using a volume of 280-458 L/ha. Each treatment was replicated three times. […] Treated plants and controls were maintained in the greenhouse and watered as needed with care to not wet the foliage for the first 24 hours after treatment. The effects on the plants approximately 17 days after treatment were visually compared to untreated controls. Plant response ratings were calculated as the means of the three replicates, based on a scale of 0 to 100 where 0 is no effect and 100 is complete control. Colby's Equation was used to determine the herbicidal effects expected from the mixtures.

[8] = test system: catchweed bedstraw (GALAP; Galium aparine); test: as above; details: applied alone
Excerpt: as §5

[9] = test system: wild mustard (SINAR; Sinapis arvensis); test: as above; details: applied alone
Excerpt: as §5

[10] = test system: redroot pigweed (AMARE; Amaranthus retroflexus); test: as above; details: applied alone
Excerpt: as §5

[11] = test system: kochia (KCHSC; Kochia scoparia); test: as above; details: applied alone
Excerpt: as §5

[12] = test system: Russian thistle (SASKR; Salsola kali); test: as above; details: applied alone
Excerpt: as §5

[13] = test system: lambsquarters (CHEAL; Chenopodium album); test: as above; details: applied alone
Excerpt: as §5

[14] = test system: wheat (TRZAW; Triticum aestivum); test: as above; details: applied alone
Excerpt: as §5

[15] = test system: wild buckwheat (POLCO; Polygonum convolvulus); test: as above; details: applied alone
Excerpt: as §5

## CCOC(=O)c1nc(C2CC2)nc(N)c1Br [Compound 1, ethyl 6-amino-5-bromo-2-cyclopropyl-4-pyrimidinecarboxylate]
[1]; Postemergence, 31 g ai/ha
  Plant response rating (0 to 100 scale): 5
[1]; Postemergence, 62 g ai/ha
  Plant response rating (0 to 100 scale): 10
[1]; Postemergence, 125 g ai/ha
  Plant response rating (0 to 100 scale): 35
[1]; Postemergence, 250 g ai/ha
  Plant response rating (0 to 100 scale): 40
[1]; Postemergence, 500 g ai/ha
  Plant response rating (0 to 100 scale): 50
[1]; Preemergence, 31 g ai/ha
  Plant response rating (0 to 100 scale): 30
[1]; Preemergence, 62 g ai/ha
  Plant response rating (0 to 100 scale): 40
[1]; Preemergence, 125 g ai/ha
  Plant response rating (0 to 100 scale): 30
[1]; Preemergence, 250 g ai/ha
  Plant response rating (0 to 100 scale): 65
[1]; Preemergence, 500 g ai/ha
  Plant response rating (0 to 100 scale): 85
[2]; Postemergence, 31 g ai/ha
  Plant response rating (0 to 100 scale): 0
[2]; Postemergence, 62 g ai/ha
  Plant response rating (0 to 100 scale): 20
[2]; Postemergence, 125 g ai/ha
  Plant response rating (0 to 100 scale): 40
[2]; Postemergence, 250 g ai/ha
  Plant response rating (0 to 100 scale): 50
[2]; Postemergence, 500 g ai/ha
  Plant response rating (0 to 100 scale): 70
[2]; Preemergence, 31 g ai/ha
  Plant response rating (0 to 100 scale): 10
[2]; Preemergence, 62 g ai/ha
  Plant response rating (0 to 100 scale): 40
[2]; Preemergence, 125 g ai/ha
  Plant response rating (0 to 100 scale): 50
[2]; Preemergence, 250 g ai/ha
  Plant response rating (0 to 100 scale): 80
[2]; Preemergence, 500 g ai/ha
  Plant response rating (0 to 100 scale): 90
[3]; Postemergence, 31 g ai/ha
  Plant response rating (0 to 100 scale): 0
[3]; Postemergence, 62 g ai/ha
  Plant response rating (0 to 100 scale): 10
[3]; Postemergence, 125 g ai/ha
  Plant response rating (0 to 100 scale): 10
[3]; Postemergence, 250 g ai/ha
  Plant response rating (0 to 100 scale): 15
[3]; Postemergence, 500 g ai/ha
  Plant response rating (0 to 100 scale): 15
[3]; Preemergence, 31 g ai/ha
  Plant response rating (0 to 100 scale): 0
[3]; Preemergence, 62 g ai/ha
  Plant response rating (0 to 100 scale): 15
[3]; Preemergence, 125 g ai/ha
  Plant response rating (0 to 100 scale): 30
[3]; Preemergence, 250 g ai/ha
  Plant response rating (0 to 100 scale): 25
[3]; Preemergence, 500 g ai/ha
  Plant response rating (0 to 100 scale): 70
[4]
  Plant response rating, Orange: 50
[5]; 1500 g ai/ha
  Plant response rating, Olive: 50
[6]
  Plant response rating, Grape: 100

## CCOC(=O)c1nc(C2CC2)nc(N)c1Cl [Compound 4, ethyl 6-amino-5-chloro-2-cyclopropyl-4-pyrimidinecarboxylate]
[4]
  Plant response rating, Orange: 75
[5]; 900 g ai/ha
  Plant response rating, Olive: 50
[6]
  Plant response rating, Grape: 100

## COC(=O)c1nc(C2CC2)nc(N)c1Cl [Compound 9, methyl 6-amino-5-chloro-2-cyclopropyl-4-pyrimidinecarboxylate]
[7]; 4 g a.i./ha
  STEME Obsd. (observed effect): 47
[7]; 8 g a.i./ha
  STEME Obsd. (observed effect): 55
[8]; 4 g a.i./ha
  GALAP Obsd. (observed effect): 83
[8]; 8 g a.i./ha
  GALAP Obsd. (observed effect): 87
[9]; 4 g a.i./ha
  SINAR Obsd. (observed effect): 45
[9]; 8 g a.i./ha
  SINAR Obsd. (observed effect): 47
[10]; 4 g a.i./ha
  AMARE Obsd. (observed effect): 62
[10]; 8 g a.i./ha
  AMARE Obsd. (observed effect): 70
[11]; 4 g a.i./ha
  KCHSC Obsd. (observed effect): 70
[11]; 8 g a.i./ha
  KCHSC Obsd. (observed effect): 87
[12]; 4 g a.i./ha
  SASKR Obsd. (observed effect): 50
[12]; 8 g a.i./ha
  SASKR Obsd. (observed effect): 73
[13]; 4 g a.i./ha
  CHEAL Obsd. (observed effect): 45
[13]; 8 g a.i./ha
  CHEAL Obsd. (observed effect): 83
[14]; Chlorsulfuron-Metsulfuron-Methyl series, 8 g a.i./ha
  TRZAW Obsd. (observed effect): 30
[14]; Chlorsulfuron-Metsulfuron-Methyl series, 16 g a.i./ha
  TRZAW Obsd. (observed effect): 43
[14]; Metsulfuron-Methyl series, 4 g a.i./ha
  TRZAW Obsd. (observed effect): 8
[14]; Metsulfuron-Methyl series, 8 g a.i./ha
  TRZAW Obsd. (observed effect): 12
[15]; 4 g a.i./ha
  POLCO Obsd. (observed effect): 17
[15]; 8 g a.i./ha
  POLCO Obsd. (observed effect): 27
